In US20210015725A1, “SKINCARE PRODUCT AND METHOD OF PREPARATION THEREOF” (FE:I BEAUTY TECH, INC., priority 2012, published 2021):

Assays:
[1] = calcium carbonate 0-10%, various time periods of incubation
Method: Precipitation of iron by calcium carbonate: Iron was added to extracellular matrix, followed by the addition of different concentrations of calcium carbonate (0-10%) (FIG. 5). After various time periods of incubation, a small part of the mixture was filtered using a membrane with a molecular weight cutoff of 5,000 Dalton as previously described in FIG. 4. Levels of iron in the filtrates were determined by Ferrozine.

[2] = target: Ferritin (Homo sapiens, UniProt P02792+P02794); assay: Reduction of iron from ferritin by vitamin C; assay type: biochemical
Method: Reduction of iron from ferritin by vitamin C: Ferritin at a concentration of 1 mg/ml was incubated with various concentrations of vitamin C (0-500 μM). […] Levels of iron in the filtrates were measured by Ferrozine (Sigma, St. Louis, Mo.), which forms a stable magenta-colored complex (Fe^2+-ferrozine) with a maximum absorption at 560 nm. In brief, 30 μl sample was added to 135 μl buffer. After 10 min incubation at 37° C., the absorbance was measured at 560 nm using a UV—visible microplate reader (SpectraMax Plus, Molecular Devices, Sunnyvale, Calif.). Then, 5 μl iron chromogenic agent (ferrozine) was added and after 15 min incubation, the absorbance was measured again at 560 nm. The difference in absorbance was used to calculate iron concentration after comparing to the iron standard curve. To determine whether iron is completely released from ferritin, atomic absorption (AA) was used to measure total iron in ferritin.

Chain of Ferritin (P02794 whole entry, species assumed): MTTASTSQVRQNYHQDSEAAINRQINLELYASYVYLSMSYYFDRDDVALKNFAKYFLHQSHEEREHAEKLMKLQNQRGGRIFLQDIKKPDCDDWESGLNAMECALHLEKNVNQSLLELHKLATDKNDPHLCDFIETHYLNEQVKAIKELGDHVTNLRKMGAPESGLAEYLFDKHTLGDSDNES
Chain of Ferritin (P02792 whole entry, species assumed): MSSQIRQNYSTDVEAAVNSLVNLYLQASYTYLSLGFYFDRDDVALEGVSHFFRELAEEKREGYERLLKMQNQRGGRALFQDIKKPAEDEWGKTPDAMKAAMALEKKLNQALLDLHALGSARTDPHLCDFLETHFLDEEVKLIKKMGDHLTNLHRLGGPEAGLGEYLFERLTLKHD

## O=C([O-])[O-].[Ca+2] [calcium carbonate]
[1]
  precipitation of iron (iron in filtrates by Ferrozine): can effectively precipitate iron

## O=C1O[C@H]([C@@H](O)CO)C(O)=C1O [vitamin C]
[2]; after vitamin C reduction
  completeness of iron release from ferritin (atomic absorption, total iron): all iron in ferritin is released
[2]; ferritin 1 mg/ml, vitamin C 0-500 μM, one hour incubation
  release of iron from ferritin (iron in filtrates measured by Ferrozine): effective in releasing iron from ferritin
